Reference: patent US7470429B2, “Methods and compositions for increasing the target-specific toxicity of a chemotherapy drug” (priority 1998, dated 2008)

Assays:
[1] = tested on: colorectal cancer; assay: Tumor therapy of colorectal cancer patient with bsMAb, DTPA-enzyme conjugates and CPT-11; format: in vivo, human; settings: then standard dose CPT-11
Description: A patient with colorectal cancer is given an injection of the bsMAb comprised of an […]-14 cross-linked with an anti-DTPA Fab' fragment, prepared according to Example 3. After 48 h to allow for maximum accretion in tumors, an amount of galactose-[…], prepared according to Example 4, sufficient to clear nearly all non-target-bound MN-14-IgG ×734-Fab' from the circulation is administered. This amount is between 5 and 15 times the amount of primary bsMAb remaining in circulation at the time-point specified. Three hours after administration of the galactose-[…], a tumor-saturating amount of a mixture of the DTPA-CE and […] conjugates is given, and allowed to clear circulation and normal tissues. […] A patient with colorectal cancer is given an injection of the bsMAb as in Example 6. After 48 h to allow for maximum accretion in tumors, an excess amount of same mixture of the DTPA-CE and DTPA-glucuronidase conjugates as in Example 6 is given. Three hours later an amount of galactose-[…] sufficient to clear nearly all non-target-bound […]-IgG ×734-Fab'-DTPA-enzymes from the circulation is administered. This amount is between 5 and 15 times the amount of primary bsMAb complexes remaining in circulation at the time-point specified.

[2] = biological target: T1, human beta-D-glucuronidase (Homo sapiens, UniProt P08236); settings: cited from earlier work
T1 sequence (P08236 23-651): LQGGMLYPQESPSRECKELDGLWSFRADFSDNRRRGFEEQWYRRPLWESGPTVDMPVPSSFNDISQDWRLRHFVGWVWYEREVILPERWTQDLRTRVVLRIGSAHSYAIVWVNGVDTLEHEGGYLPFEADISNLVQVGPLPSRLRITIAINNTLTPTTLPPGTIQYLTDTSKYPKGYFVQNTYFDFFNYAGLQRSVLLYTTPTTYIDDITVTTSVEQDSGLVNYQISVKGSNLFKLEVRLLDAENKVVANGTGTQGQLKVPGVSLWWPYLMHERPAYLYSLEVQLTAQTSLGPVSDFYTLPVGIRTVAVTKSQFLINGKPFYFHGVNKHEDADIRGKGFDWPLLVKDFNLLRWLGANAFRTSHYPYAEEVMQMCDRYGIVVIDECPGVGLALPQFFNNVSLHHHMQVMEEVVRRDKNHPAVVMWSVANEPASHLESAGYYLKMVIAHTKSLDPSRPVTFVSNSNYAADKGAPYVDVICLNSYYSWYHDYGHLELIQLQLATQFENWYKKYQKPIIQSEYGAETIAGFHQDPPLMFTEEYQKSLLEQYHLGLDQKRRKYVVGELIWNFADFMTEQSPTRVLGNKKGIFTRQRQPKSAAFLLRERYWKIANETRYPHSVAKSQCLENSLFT

[3] = pretreatment of rats; cited from earlier work
[4] = tested on: uridine diphosphate glucuronosyl transferase (UDP-GT); settings: pretreatment of rats; cited from earlier work
[5] = tested on: lymphoma; assay: Therapy of lymphoma in a human patient after pretargeting of enzyme conjugates; format: in vivo; settings: 10 mg i.v. after pretargeted Fab′-glucuronidase and esterase conjugates; compared to 10 mg epirubicin prior to targeting
Description: A human patient suffering from lymphoma is infused intravenously with a sterile, pyrogen-free PBS solution containing 5 mg each of the 1-13 1-labeled anti-lymphoma Fab′-glucuronidase and esterase conjugates prepared according to Example 1 hereof.
The patient is then infused intravenously with a sterile, pyrogen-free PBS solution containing 10 mg of epirubicin methyl ester.

Compound: CCc1c2c(nc3ccc(OC(=O)N4CCC(N5CCCCC5)CC4)cc13)-c1cc3c(c(=O)n1C2)COC(=O)[C@]3(O)CC [CPT-11, irinotecan]
- effect on tumors ([1]; Example 6: bsMAb, galactose-W12 clearing, then DTPA-enzyme conjugates): destroying the tumors
- effect on tumors ([1]; Example 7: bsMAb, DTPA-enzyme conjugates, then galactose-W12 clearing): destroying said tumors

Compound: COc1cccc2c1C(=O)c1c(O)c3c(c(O)c1C2=O)C[C@@](O)(C(=O)CO)C[C@@H]3O[C@H]1C[C@H](N)[C@@H](O)[C@H](C)O1 [epirubicin]
- substrate for human beta-D-glucuronidase [2]: substrate for human beta-D-glucuronidase

Compound: CCCC(CCC)C(=O)O [valproic acid]
- AUC for SN-38 from subsequently-administered CPT-11 [3]: 270%
- formation of SN-38G [4]: inhibited the formation of SN-38G

Compound: epirubicin methyl ester
- reduction in the lymphoma by radioimmunodetection [5]: significant reduction in the lymphoma
